The source of these data is patent US6548553B2, “Styryl sulfone anticancer agents” (Temple University-of the Commonwealth System of Higher …, priority 1997, dated 2003).

One data set has as its system LnCaP and MCF-7 cells. As to the kind of experiment: Trypan blue exclusion viability assay, Tables 2-4. Format: cell-based. Conditions: 5.0 μM compound, 48 hours; for viability at 5 µM: read-out: % viable LnCaP and MCF-7 cells. As to the method: (§1) The effect of the styryl sulfones on the growth of normal and tumor cells of breast and prostate was examine utilizing four cell lines, NIH3T3, MCF-7, BT-20 and LnCap. NIH/3T3 cells represent normal fibroblasts while LnCap is an androgen-dependent prostate tumor cell line. MCF-7 is an estrogen-responsive breast tumor cell line, while BT-20 is an estrogen-unresponsive breast tumor cell line. MCF-7 and BT-20 were grown in Dulbecco's modified Eagle's medium (DMEM) containing 10% fetal bovine serum supplemented with penicillin and streptomycin. LnCaP were cultured in RPMI with 10% fetal bovine serum containing penicillin and streptomycin. NIH3T3 cells were grown in DMEM containing 10% calf serum supplemented with penicillin and streptomycin. All cell cultures were maintained at 37° C. in a humidified atmosphere of 5% CO2.
Cells were treated with test compound at 2.5 μM or 5.0 μM concentration and cell viability was determined after 48 hours by the Trypan blue exclusion method. The compounds identified in Tables 2, 3 and 4 inhibited cell growth and induced cell death, to varying degrees. The tables list the percent viable LnCap and MCF-7 cells treated with 5.0 μM compound.

Data set [1] can be described thus: Trypan blue exclusion viability assay, normal fibroblasts. The format is cell-based. The arrangement: viability at 48 h: dose or concentration left out as unconfirmed. Conditions: mouse, NIH3T3 cells (normal fibroblasts); for viability at 48 h: 48 hours incubation, read-out: viable NIH3T3 cells. As to the method: as §1
(§2) The compounds identified in Tables 2, 3 and 4 inhibited cell growth and induced cell death, to varying degrees. The tables list the percent viable LnCap and MCF-7 cells treated with 5.0 μM compound.
(§3) The percentage of living cells was determined by Trypan blue exclusion. The control cells were treated with DMSO to determine the effect of solvent on cells. […] Under these conditions, only 2-3% of NIH3T3 cells were non-viable at both the concentrations. […] After 48 hours incubation, 60-75% of the LnCaP, BT-20 and MCF-7 cells were dead at […] FRI-20 concentration, whereas more than 90% of NIH3T3 cells were viable (FIG. 2A).

For data set [2], the system named is LnCaP, BT-20 and MCF-7 cells. In words: Trypan blue exclusion viability/proliferation assay (dose and time course). Format: cell-based. Conditions: 2.5 mM (FIG. 1A) and 5.0 mM (FIG. 1B), 48 hours of treatment.
Data set [3] relates to LnCaP, BT-20 and MCF-7 cells. The data set is described as above. The format is cell-based. As for the experimental part:
as §1, §2
as §3, with “NIH3T3, MCF-7, BT-20 and LnCaP cells were treated with FRI-20 dissolved in DMSO to concentrations of 250 nM, 500 nM, 1 μM, 2.5 μM and 5 μM and examined for their proliferation and viability after 48 hours (FIG. 2A). The percentage” for “The percentage”
NIH/3T3, MCF-7, BT-20 and LnCap were treated with FRI-20 at 2.5 μM and the number of viable cells was determined at 12, 24, 48 and 72 hours by Trypan blue exclusion.

The next data set relates to BT20. In words: GI50 growth inhibition, trypan blue cell count. Format: cell-based, human. Conditions: breast, estrogen receptor negative; 96 hours after addition. As for the experimental part:
(§4) The human carcinoma cell lines listed in Table 5 below were purchased from ATCC and grown in an appropriate growth medium containing 10% fetal bovine serum (FBS) and antibiotics. The cells were plated at a cell density of 1.0×10^5 cells per […] in 6-well dishes. The cells were treated with various concentrations of (E)-fluorostyryl-4-bromobenzylsulfone 24 hours after plating in a total volume of 1 ml of medium using dimethylsulfoxide (DMSO) as a solvent for the compound. Control cells were treated with DMSO alone. The total number of viable cells was determined 96 hours after the addition of the compound by counting the cells in each well using a hemacytometer after trypan blue staining (viable cells exclude the stain). The counts were done in duplicate and the average was graphed in FIG. 8 as a percentage of the non-treated control group.

A further data set concerns DLD-1. In words: GI50 growth inhibition, trypan blue cell count. Format: cell-based, human. The conditions noted are these: cob-rectal; 96 hours after addition. As for the experimental part: as §4
The next data set deals with DU145. In words: GI50 growth inhibition, trypan blue cell count. The conditions noted are these: prostate, androgen receptor negative; 96 hours after addition. The format is cell-based, human. As to the method:
as §4

The next data set concerns H157. In words: GI50 growth inhibition, trypan blue cell count. Format: cell-based, human. The conditions noted are these: lung, non-small cell; 96 hours after addition. As for the experimental part: as §4
Another data set has as its system MIA-PaCa-2. In words: GI50 growth inhibition, trypan blue cell count. Format: cell-based, human. The conditions noted are these: pancreatic; 96 hours after addition. As for the experimental part: as §4
A further data set relates to U87. As to the kind of experiment: GI50 growth inhibition, trypan blue cell count. The format is cell-based, human. Conditions: glioblastoma; 96 hours after addition. As to the method:
as §4

In another data set the test system is DU145 cells. In words: Comparison with cisplatin, Trypan blue viability after 72 hours. The format is cell-based. The conditions noted are these: DU145, 72 hours, Trypan blue exclusion. As to the method: (§5) The killing effect of FR-20 on androgen-sensitive (LnCaP) and androgen insensitive (DU145) prostate tumor cells was compared to the effect of cisplatin (cis-diamminedichloroplatinum II), a widely used anti-prostate cancer agent. The cells were grown as in Example 26. FRI-20 or cisplatin was dissolved in DMSO and added to the cells at various concentrations. Viability was determined after 72 hours by the Trypan blue exclusion method. The concentration of FRI-20 required to completely kill LnCaP and DU145 cells was 2.5 μM and 5.0 μM, respectively. Under identical conditions, complete killing of LnCaP and DU145 cells by cisplatin required 25 μM and 15 μM concentrations, respectively.

Another data set deals with LnCaP cells. Described as above. The format is cell-based. The conditions noted are these: LnCaP, 72 hours, Trypan blue exclusion. As for the experimental part: as §5

As for `O=S(=O)(/C=C/c1ccccc1)c1ccccc1` [Example 1, E-styryl Phenyl Sulfone], in the data set with LnCaP and MCF-7 cells, the viability at 5 µM was 89%.

For the compound `O=S(=O)(/C=C/c1ccc(Cl)cc1)c1ccccc1` [Example 2, E-4-chlorostyryl Phenyl Sulfone], the viability at 5 µM in the data set on LnCaP and MCF-7 cells came out at 90%.

Regarding `O=S(=O)(/C=C/c1ccc(Cl)cc1Cl)c1ccccc1` [Example 3, E-2,4-dichlorostyryl Phenyl Sulfone], the viability at 5 µM with LnCaP and MCF-7 cells came out at 88%.

Turning to `O=S(=O)(/C=C/c1ccc(Br)cc1)c1ccccc1` [Example 4, E-4-bromostyryl Phenyl Sulfone], the viability at 5 µM with LnCaP and MCF-7 cells was 68%.

Turning to `O=S(=O)(/C=C/c1ccc(Cl)cc1)c1ccc(Cl)cc1` [Example 5, E-4-chlorostyryl 4-chlorophenyl Sulfone], the viability at 5 µM in the data set with LnCaP and MCF-7 cells stood at 64%.

Turning to `Cc1ccc(/C=C/S(=O)(=O)c2ccc(Cl)cc2)cc1` [Example 6, E-4-methylstyryl 4-chlorophenyl Sulfone], the viability at 5 µM in the data set with LnCaP and MCF-7 cells was 92%.

On to `COc1ccc(/C=C/S(=O)(=O)c2ccc(Cl)cc2)cc1` [Example 7, E-4-methoxystyryl 4-chlorophenyl Sulfone], for which the viability at 5 µM with LnCaP and MCF-7 cells amounted to 90%.

For `O=S(=O)(/C=C/c1ccc(Br)cc1)c1ccc(Cl)cc1` [Example 8, E-4-bromostyryl 4-chlorophenyl Sulfone], the viability at 5 µM with LnCaP and MCF-7 cells is 69%.

With `O=S(=O)(/C=C/c1ccccc1Cl)Cc1ccccc1` [Example 9, E-2-chlorostyryl Benzyl Sulfone], the viability at 5 µM in the data set on LnCaP and MCF-7 cells amounted to 94%.

As for `O=S(=O)(/C=C/c1ccc(Cl)cc1)Cc1ccccc1` [Example 10, E-4-chlorostyryl Benzyl Sulfone], in the data set with LnCaP and MCF-7 cells, the viability at 5 µM worked out at 87%.

Consider `O=S(=O)(/C=C/c1ccc(Cl)cc1)Cc1ccc(Cl)cc1` [Example 12, E-4-chlorostyryl 4-chlorobenzyl Sulfone], for which, in the data set with LnCaP and MCF-7 cells, the viability at 5 µM is 49%. In addition, in data set [1], the viability at 48 h, 5 µM is above 80% and the viability at 48 h is above 80%. Moreover, the “inhibition of growth and induction of death of LnCaP, BT-20 and MCF-7 cells” value (shortened to “inhibition … BT-20 and MCF-7 cells”) in data set [2] was “substantially inhibit the growth and induce the death”.

Regarding `O=S(=O)(/C=C/c1ccc(F)cc1)Cc1ccc(F)cc1` [Example 13, E-4-fluorostyryl 4-fluorobenzyl Sulfone], the viability at 5 µM in the data set on LnCaP and MCF-7 cells worked out at 43%.

As for `O=S(=O)(/C=C/c1ccc(F)cc1F)Cc1ccc(F)cc1` [Example 14, E-2,4-difluorostyryl 4-fluorobenzyl Sulfone], in the data set with LnCaP and MCF-7 cells, the viability at 5 µM turned out to be 56%. In [1], the viability at 48 h, 5 µM is above 80% and the viability at 48 h is above 80%. The “inhibition … BT-20 and MCF-7 cells” value in [2] was “substantially inhibit the growth and induce the death”.

Consider `O=S(=O)(/C=C/c1ccc(Br)cc1)Cc1ccc(Br)cc1` [Example 16, E-4-bromostyryl 4-bromobenzyl Sulfone], for which the viability at 5 µM in the data set with LnCaP and MCF-7 cells was found to be 51%.

Take `O=S(=O)(/C=C/c1ccc(Br)cc1)Cc1ccc(F)cc1` [Example 17, E-4-bromostyryl 4-fluorobenzyl Sulfone]: the viability at 5 µM in the data set on LnCaP and MCF-7 cells came to 42%. In addition, in [1], the viability at 48 h, 5 µM was above 80% and the viability at 48 h was above 80%. Also, the “inhibition … BT-20 and MCF-7 cells” value in data set [2] is “substantially inhibit the growth and induce the death”.

Regarding `O=S(=O)(/C=C/c1ccc(Cl)cc1)Cc1ccc(Br)cc1` [Example 18, E-4-chlorostyryl 4-bromobenzyl Sulfone], the viability at 5 µM with LnCaP and MCF-7 cells came to 7%. In data set [3], the “activity (growth inhibition and cell death)” value is recorded as “highly active”.

Consider `O=S(=O)(/C=C/c1ccc(Br)cc1)Cc1ccc(Cl)cc1` [Example 19, E-4-bromostyryl 4-chlorobenzyl Sulfone], for which the viability at 5 µM with LnCaP and MCF-7 cells is 20%. In data set [3], the “activity (growth inhibition and cell death)” value was “highly active”.

On to `O=S(=O)(/C=C\c1ccccc1)/C=C/c1ccc(F)cc1` [Example 20, (Z)-styryl-(E)-4-fluorostyryl Sulfone], for which the viability at 5 µM in the data set with LnCaP and MCF-7 cells was found to be 76%.

Regarding `O=S(=O)(/C=C\c1ccccc1)/C=C/c1ccc(Br)cc1` [Example 21, (Z)-styryl-(E)-4-bromostyryl Sulfone], the viability at 5 µM with LnCaP and MCF-7 cells came out at 68%.

With `O=S(=O)(/C=C\c1ccccc1)/C=C/c1ccc(Cl)cc1` [Example 22, (Z)-styryl-(E)-4-chlorostyryl Sulfone], in the data set on LnCaP and MCF-7 cells, the viability at 5 µM came to 72%.

Consider `O=C(C(=Cc1ccc(F)cc1)S(=O)(=O)c1ccc(F)cc1)c1ccccc1` [Example 23, 2-[(4-fluorophenyl)sulfonyl]-1-phenyl-3-(4-fluorophenyl)-2-propen-1-one], for which, in the data set on LnCaP and MCF-7 cells, the viability at 5 µM was found to be 76%.

`O=C(C(=Cc1ccc(F)cc1)S(=O)(=O)c1ccccc1Cl)c1ccccc1` [Example 24]: in the data set on LnCaP and MCF-7 cells, the “% viable LnCaP and MCF-7 cells” value was 64%.

Consider `O=C(C(=Cc1ccc(Br)cc1)S(=O)(=O)c1ccccc1Cl)c1ccccc1` [Example 25, 2-[(2-chlorophenyl)sulfonyl]-1-phenyl-3-(4-bromophenyl)-2-propen-1-one], for which the viability at 5 µM in the data set with LnCaP and MCF-7 cells worked out at 72%.

Take `O=C(C(=Cc1ccc(Br)cc1)S(=O)(=O)c1ccc(Cl)cc1)c1ccccc1` [Example 26, 2-[(4-chlorophenyl)sulfonyl]-1-phenyl-3-(4-bromophenyl)-2-propen-1-one]: the viability at 5 µM in the data set with LnCaP and MCF-7 cells stood at 58%.

On to `O=C(C(=Cc1ccc(Br)cc1)S(=O)(=O)c1ccccc1[N+](=O)[O-])c1ccccc1` [Example 27, 2-[(2-nitrophenyl)sulfonyl]-1-phenyl-3-(4-bromophenyl)-2-propen-1-one], for which the viability at 5 µM with LnCaP and MCF-7 cells worked out at 74%.

In general, GI50 refers to the concentration at which growth is held to half of that of the control. `O=S(=O)(/C=C/c1ccc(F)cc1Cl)Cc1ccc(Cl)cc1` [Example 36, E-(2)-chloro-4-fluorostyryl-4-chlorobenzylsulfone]: the GI50 in the data set on BT20 came to 900 nM; with DLD-1 it was 800 nM; in the data set on DU145, 2000 nM; in the data set on H157, 1500 nM; in the data set with MIA-PaCa-2, 1000 nM; in the data set with U87, 1800 nM.

Consider `N.N.[Cl][Pt][Cl]` [cisplatin, cis-diamminedichloroplatinum II, reference compound], for which the “concentration required to completely kill cells” value in the data set with DU145 cells was determined as 15 µM; with LnCaP cells, 25 µM.
